Activity calls are given as the source filed them.
Assays:
[1] = target: T1, Small ubiquitin-related modifier 1 (Homo sapiens, UniProt P63165); assay: inhibitors of SUMO1 partner interactions, dose response, biochemical, FRET (AID 624383); format: functional; details: read-out: IC50_Mean
[2] = target: T1, Small ubiquitin-related modifier 1; assay: inhibitors of SUMO1 peptide binding, dose response, biochemical, fluorescence polarization, uHTS hits (AID 624382); format: functional; details: read-out: IC50_Mean
[3] = target: 26S proteasome non-ATPase regulatory subunit 14 (Homo sapiens, UniProt O00487); assay: inhibition of proteasome subunit RPN11 – biochemical, fluorescence polarization, uHTS hits, confirmation (AID 602368); format: functional
Chain of 26S proteasome non-ATPase regulatory subunit 14 (O00487 whole entry): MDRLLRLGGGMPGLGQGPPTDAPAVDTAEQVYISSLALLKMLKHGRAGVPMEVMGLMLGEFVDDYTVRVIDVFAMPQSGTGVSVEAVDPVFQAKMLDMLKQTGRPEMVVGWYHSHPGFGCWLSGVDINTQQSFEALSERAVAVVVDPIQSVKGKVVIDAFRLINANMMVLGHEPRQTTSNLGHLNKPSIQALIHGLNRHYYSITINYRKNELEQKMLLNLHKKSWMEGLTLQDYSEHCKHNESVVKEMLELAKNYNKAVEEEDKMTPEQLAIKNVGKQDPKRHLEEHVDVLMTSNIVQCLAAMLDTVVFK

[4] = target: 72 kDa type IV collagenase (Homo sapiens, UniProt P08253); assay: Dose Response validation of uHTS RPN11 inhibitor hits using a MMP-2 Fluorescence assay.; format: functional
Chain of 72 kDa type IV collagenase (P08253 whole entry): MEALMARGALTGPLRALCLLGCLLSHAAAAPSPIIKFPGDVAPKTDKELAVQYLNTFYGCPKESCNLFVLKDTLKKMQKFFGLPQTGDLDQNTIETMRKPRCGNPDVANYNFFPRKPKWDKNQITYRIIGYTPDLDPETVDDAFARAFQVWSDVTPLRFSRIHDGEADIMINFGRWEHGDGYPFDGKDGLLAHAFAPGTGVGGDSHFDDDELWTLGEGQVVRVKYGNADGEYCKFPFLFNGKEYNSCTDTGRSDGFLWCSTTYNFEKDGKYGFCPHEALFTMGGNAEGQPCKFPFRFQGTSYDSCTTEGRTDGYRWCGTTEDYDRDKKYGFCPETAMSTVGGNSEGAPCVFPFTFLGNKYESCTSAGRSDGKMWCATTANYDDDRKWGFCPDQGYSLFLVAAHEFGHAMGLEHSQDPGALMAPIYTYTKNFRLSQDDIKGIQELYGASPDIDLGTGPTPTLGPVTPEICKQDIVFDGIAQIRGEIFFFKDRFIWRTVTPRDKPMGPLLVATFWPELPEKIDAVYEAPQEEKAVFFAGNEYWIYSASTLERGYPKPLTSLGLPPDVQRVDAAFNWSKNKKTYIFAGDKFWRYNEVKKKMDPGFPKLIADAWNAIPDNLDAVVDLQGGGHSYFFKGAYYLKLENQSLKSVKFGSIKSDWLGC

Prothrombin = Prothrombin (Bos taurus, UniProt P00735); assay: thrombin inhibition, dose response, biochemical, fluorescence polarization, uHTS hits (AID 602369); format: functional
[5] = target: T2, Zinc finger protein mex-5 (Caenorhabditis elegans, UniProt Q9XUB2); assay: MEX-5/TCR-2 RNA interaction inhibitors, dose response, biochemical, C. elegans, fluorescence polarization (AID 1960)
T2 sequence (Q9XUB2 whole entry): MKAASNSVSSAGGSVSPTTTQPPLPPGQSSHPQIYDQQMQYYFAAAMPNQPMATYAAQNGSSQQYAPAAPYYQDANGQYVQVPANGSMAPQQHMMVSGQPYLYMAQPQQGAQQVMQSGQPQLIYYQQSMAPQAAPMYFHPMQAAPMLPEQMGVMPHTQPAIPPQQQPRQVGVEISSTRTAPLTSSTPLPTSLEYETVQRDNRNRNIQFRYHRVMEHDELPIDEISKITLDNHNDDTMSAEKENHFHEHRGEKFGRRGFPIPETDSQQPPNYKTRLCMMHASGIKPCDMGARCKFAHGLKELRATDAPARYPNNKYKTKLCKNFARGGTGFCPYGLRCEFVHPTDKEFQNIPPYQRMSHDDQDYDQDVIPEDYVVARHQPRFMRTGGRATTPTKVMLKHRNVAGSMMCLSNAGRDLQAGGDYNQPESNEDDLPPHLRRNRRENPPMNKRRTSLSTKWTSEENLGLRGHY

[6] = target: T3, RNA-binding protein pos-1 (Caenorhabditis elegans, UniProt G5EF15); assay: inhibitors of POS-1/mex-3 RNA binding, dose response, biochemical, fluorescence polarization (AID 1964);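 also: purified POS-1 fused to maltose binding protein made in E. coli; potency of compounds blocking POS-1 binding to fluorescent RNA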
T3 sequence (G5EF15 whole entry): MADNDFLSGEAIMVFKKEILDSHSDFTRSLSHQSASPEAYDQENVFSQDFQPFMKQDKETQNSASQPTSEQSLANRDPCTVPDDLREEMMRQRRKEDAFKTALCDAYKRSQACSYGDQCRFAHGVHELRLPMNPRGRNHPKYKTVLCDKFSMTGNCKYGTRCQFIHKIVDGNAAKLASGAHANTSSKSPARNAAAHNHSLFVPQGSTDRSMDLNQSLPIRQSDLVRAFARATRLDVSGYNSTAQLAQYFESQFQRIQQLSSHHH

[7] = cytotoxicity in HEK-293T cells, dose response, cytotoxicity control for TCR NF-kB inhibitor project, luminescence, T-cell screen hits (AID 489026); format: functional, cell-based;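 also: cells exposed to compound about 14 hours before the viability readout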
[8] = Luminescence Cell-Based Dose Response HTS to Identify Inhibitors of 5'UTR Stem-Loop Driven Prion Protein mRNA Translation in H4 Neuroglioblastoma Cells. [Related pubchem assays: 1827 (Project Summary), 1813 (Primary HTS)]; format: functional
[9] = inhibitors of firefly luciferase expression or activity, dose response, H4 neuroglioma cells, luminescence (AID 1990); format: functional, cell-based
[10] = inhibitors of SNCA 5'UTR-driven reporter translation, confirmation, H4 neuroglioma cells, luminescence (AID 1988); format: functional, cell-based
cells [11] = format: functional, cell-based; details: HEK-CNG
Galanin receptor type 3 = target: T4, Galanin receptor type 3 (Homo sapiens, UniProt O60755); assay: Fluorescence-based cell-based primary high throughput dose response assay to identify antagonists of the Galanin Receptor 3 (GalR3).; format: functional
T4 sequence (O60755 whole entry): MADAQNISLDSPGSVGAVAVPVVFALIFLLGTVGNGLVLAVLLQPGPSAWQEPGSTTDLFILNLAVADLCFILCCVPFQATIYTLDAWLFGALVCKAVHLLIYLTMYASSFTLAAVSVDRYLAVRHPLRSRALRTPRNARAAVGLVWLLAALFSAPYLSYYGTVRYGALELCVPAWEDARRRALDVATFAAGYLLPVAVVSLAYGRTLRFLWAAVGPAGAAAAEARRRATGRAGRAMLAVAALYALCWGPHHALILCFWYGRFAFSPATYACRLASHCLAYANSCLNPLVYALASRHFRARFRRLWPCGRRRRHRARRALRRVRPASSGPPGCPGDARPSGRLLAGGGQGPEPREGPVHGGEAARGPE

[12] = target: T5, Microphthalmia-associated transcription factor (Homo sapiens, UniProt O75030); assay: TRPM1 promoter luciferase signal decrease, dose response, MITF inhibitor project, cell-based, SK-MEL-5, cherry-picked, set 3 (AID 493073); format: functional
T5 sequence (O75030 whole entry): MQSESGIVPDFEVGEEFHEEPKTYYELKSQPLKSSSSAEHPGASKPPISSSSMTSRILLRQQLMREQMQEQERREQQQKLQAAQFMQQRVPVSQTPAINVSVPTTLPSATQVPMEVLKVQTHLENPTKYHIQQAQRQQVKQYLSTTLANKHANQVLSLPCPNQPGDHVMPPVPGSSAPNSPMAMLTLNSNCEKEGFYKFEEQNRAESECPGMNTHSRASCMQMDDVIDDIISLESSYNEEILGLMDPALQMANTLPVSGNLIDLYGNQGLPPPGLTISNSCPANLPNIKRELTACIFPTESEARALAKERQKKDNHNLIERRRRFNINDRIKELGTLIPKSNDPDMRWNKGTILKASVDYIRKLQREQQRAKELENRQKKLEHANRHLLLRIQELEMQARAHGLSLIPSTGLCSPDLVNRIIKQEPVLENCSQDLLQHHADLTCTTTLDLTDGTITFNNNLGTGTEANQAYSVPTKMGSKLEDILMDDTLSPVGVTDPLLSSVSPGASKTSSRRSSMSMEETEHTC

A-375 [13] = assay: MITF: Counter assay: A375 proliferation Measured in Cell-Based System Using Plate Reader - 2084-03_Inhibitor_Dose_DryPowder_Activity. [Related pubchem assays (depositor defined):AID488944]; format: functional; details: Homo sapiens
Nonstructural protein 1 = Nonstructural protein 1 (Influenza A virus, UniProt Q194T2); format: functional, Influenza A virus (A/California/07/2009(H1N1))
Chain of Nonstructural protein 1 (Q194T2 whole entry): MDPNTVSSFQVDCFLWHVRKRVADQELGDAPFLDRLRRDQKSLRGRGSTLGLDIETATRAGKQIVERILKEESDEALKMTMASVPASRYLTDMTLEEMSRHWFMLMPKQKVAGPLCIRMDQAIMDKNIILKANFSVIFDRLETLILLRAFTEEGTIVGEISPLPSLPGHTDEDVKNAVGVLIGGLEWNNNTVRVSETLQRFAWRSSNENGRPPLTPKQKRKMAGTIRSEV

H9c2 = assay: cells; format: functional, cell-based; details: Rattus norvegicus, H9c2, Myocardium;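 also: confirmatory concentration-response retest of ultra-high-throughput screening hits for modulation of myocardial damage; cell death induced by hydrogen peroxide oxidative stress; compound pretreatment for 60 min then peroxide exposure for 2 h; potency is for protecting the cells against peroxide damage rather than for killing them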
A-375 [14] = assay: A375 melanoma cell viability reduction, dose response, counter-screen for MITF modulator project, cherry-pick samples, set 2 (AID 540335); format: functional, cell-based; details: Homo sapiens
cells [15] = format: functional
Phospholipase A2 = Phospholipase A2 (Homo sapiens, UniProt P04054); format: functional;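 also: confirmatory dose-response counterscreen on phospholipase A2, testing hits that came from an ultra-high-throughput screen for ATG4B inhibitors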
Chain of Phospholipase A2 (P04054 whole entry): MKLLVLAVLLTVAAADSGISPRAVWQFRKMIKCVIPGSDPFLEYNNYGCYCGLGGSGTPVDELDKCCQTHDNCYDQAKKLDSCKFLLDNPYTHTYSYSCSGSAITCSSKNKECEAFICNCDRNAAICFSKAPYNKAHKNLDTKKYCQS

Cysteine protease ATG4B = target: T6, Cysteine protease ATG4B (Homo sapiens, UniProt Q9Y4P1); format: functional;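 also: Fluorescence-based dose-response confirmation assay measuring inhibition of ATG4B activity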
T6 sequence (Q9Y4P1 whole entry): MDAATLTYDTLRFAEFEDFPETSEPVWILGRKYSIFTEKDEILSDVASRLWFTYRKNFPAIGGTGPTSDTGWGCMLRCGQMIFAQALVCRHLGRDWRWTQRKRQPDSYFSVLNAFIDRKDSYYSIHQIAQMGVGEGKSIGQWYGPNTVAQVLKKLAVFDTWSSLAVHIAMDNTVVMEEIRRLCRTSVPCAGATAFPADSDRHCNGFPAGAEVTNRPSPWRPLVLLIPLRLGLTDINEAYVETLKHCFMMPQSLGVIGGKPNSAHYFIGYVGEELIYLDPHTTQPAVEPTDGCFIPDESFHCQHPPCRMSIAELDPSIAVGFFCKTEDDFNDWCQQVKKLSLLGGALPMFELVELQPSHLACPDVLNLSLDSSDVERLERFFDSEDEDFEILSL

[16] = Luminescence Cell-Based Dose Retest to Confirm Inhibitors of Cancer Stem Cells. [Related pubchem assays (depositor defined):AID2717, AID2721]; format: functional; details: Homo sapiens
[17] = growth suppression of beta-catenin-knockout colon cells, dose response, cell-based, HCT116, human colon tumor (AID 1045); format: functional;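 also: HCT116 colon tumor cells with beta catenin knocked out; cells exposed to compound for 60 hours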
[18] = growth suppression of PTEN-null colon cells, dose response, cell-based, HCT116 PTEN knockout (AID 1047); format: functional;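 also: HCT116 colon tumor cells with PTEN knocked out; cells exposed to compound for 60 hours before readout; potency for loss of cell viability measured by luminescence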
[19] = target: T7, Sentrin-specific protease 1 (Homo sapiens, UniProt Q9P0U3); assay: Dose response confirmation of small molecule inhibitors of the catalytic domain of the SUMO protease, SENP1 in a FRET assay.; format: functional; details: read-out: IC50_Mean
T7 sequence (Q9P0U3 whole entry): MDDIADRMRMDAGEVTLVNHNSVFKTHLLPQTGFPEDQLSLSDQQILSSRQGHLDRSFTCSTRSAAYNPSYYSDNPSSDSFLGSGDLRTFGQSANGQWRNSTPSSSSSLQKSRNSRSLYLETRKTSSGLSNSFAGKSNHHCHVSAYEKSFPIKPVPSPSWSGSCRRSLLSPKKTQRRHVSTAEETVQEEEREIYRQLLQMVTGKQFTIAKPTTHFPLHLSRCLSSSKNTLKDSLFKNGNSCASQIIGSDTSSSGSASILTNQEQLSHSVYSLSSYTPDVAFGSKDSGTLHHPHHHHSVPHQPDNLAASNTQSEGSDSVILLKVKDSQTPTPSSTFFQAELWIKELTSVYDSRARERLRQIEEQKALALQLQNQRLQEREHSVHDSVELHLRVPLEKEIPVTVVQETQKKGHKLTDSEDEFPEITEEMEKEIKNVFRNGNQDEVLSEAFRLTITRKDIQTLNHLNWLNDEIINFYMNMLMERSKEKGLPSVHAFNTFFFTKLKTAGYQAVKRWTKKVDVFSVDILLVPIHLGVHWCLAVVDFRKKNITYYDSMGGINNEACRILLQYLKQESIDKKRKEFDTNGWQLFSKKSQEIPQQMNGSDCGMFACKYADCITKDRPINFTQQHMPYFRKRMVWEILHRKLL

[20] = target: T7, Sentrin-specific protease 1; assay: potency of human SENP1 inhibitors, dose response, biochemical, kinetic FRET (AID 651697); format: functional; details: read-out: IC50_Mean
[21] = target: T8, Endoribonuclease toxin MazF (Escherichia coli K-12, UniProt P0AE70); assay: fluorescent RNA oligo signal without MazF, dose response, counter-screen for MazEF activator project, biochemical, fluorescence, single-stranded RNase substrate (AID 588502); format: functional
T8 sequence (P0AE70 whole entry): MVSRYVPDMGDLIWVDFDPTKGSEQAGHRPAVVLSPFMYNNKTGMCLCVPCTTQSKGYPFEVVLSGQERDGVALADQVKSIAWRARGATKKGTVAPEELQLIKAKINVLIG

[22] = microbe, parasite or virus in culture; format: functional; details: Mycobacterium tuberculosis
[23] = target: T8, Endoribonuclease toxin MazF; assay: MazF toxin RNase activators, dose response, biochemical, fluorescence, single-stranded RNA substrate, uHTS hits (AID 588481); format: functional

T1 sequence (P63165 whole entry): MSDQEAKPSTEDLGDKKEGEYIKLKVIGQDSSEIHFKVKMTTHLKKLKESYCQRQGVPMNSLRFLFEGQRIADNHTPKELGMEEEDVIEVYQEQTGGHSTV

CCOC(=O)C1=C(COc2ccccc2)NC(=O)NC1c1ccc(Cl)cc1 (configuration not stated)
IC50 [1]: 15.7 µM (active)
IC50 [2]: > 66.6 µM (inactive)

CC1=Nc2ccccc2/C1=C\c1nc(-c2ccccc2)oc1O
IC50 [3]: 4.18 µM (active)
IC50 [4]: > 100 µM (inactive)
IC50 (Prothrombin): 7.22 µM (active)

Cc1cc(/C=C(/C#N)c2nc3ccccc3[nH]2)c(C)n1-c1ccccc1C(=O)O
EC50 [5]: > 300 µM (not active)
IC50 [3]: 26.2 µM (active)
IC50 [4]: > 100 µM (inactive)
EC50 [6]: > 300 µM (not active)
IC50 (Prothrombin): 25.5 µM (active)

COC(=O)c1ccc(C)c(NS(=O)(=O)c2ccc3c(c2)OCCO3)c1
IC50 [7]: > 80 µM (inactive)
EC50 [8]: 9.9 µM (active)
EC50 [9]: 8.4 µM (inconclusive)
EC50 [10]: 1.3 µM (active)

CC(C)Cn1c(N)c(C(=O)COC(=O)/C=C/c2ccccc2)c(=O)n(C)c1=O
EC50 (cells [11]): > 29.9 µM (inactive)
IC50 (Galanin receptor type 3): > 29.9 µM (inactive)

Oc1c(CN2CCCC2)cc(COCc2ccccc2)c2cccnc12
AC50 [12]: 6.15 µM (active)
AC50 (A-375 [13]): 32.7 µM (active)
IC50 (Nonstructural protein 1): 3.78 µM (active)

CCOc1ccc(NC(=O)c2cc3c(C)nc4ccccc4c3o2)cc1
IC50 [7]: > 80 µM (inactive)
IC50 (H9c2): > 79 µM (inactive)

O=C(N/N=C/C=C/c1ccccc1)c1ccccn1
AC50 (A-375 [14]): > 35 µM (active)
IC50 (cells [15]): 11.2 µM (active)
AC50 (A-375 [13]): > 35 µM (active)

O=C(CSc1nc2ccccc2c(=O)n1-c1ccc(Cl)cc1)N/N=C/C=C/c1ccccc1[N+](=O)[O-]
IC50 (Phospholipase A2): 1.18 µM (active)
IC50 (Cysteine protease ATG4B): 8.92 µM (active)

CCCc1ccc(OC(=O)c2cccs2)cc1
IC50 (Phospholipase A2): 10.2 µM (active)
IC50 (Cysteine protease ATG4B): 10.7 µM (active)

O=C(Nc1ccc(Cl)c(S(=O)(=O)N2CCOCC2)c1)c1ccc(OCC2CCCO2)cc1 (configuration not stated)
IC50 [7]: 16.9 µM (active)
AC50 [12]: 3.26 µM (active)

CC(C)C(NC(=O)OCc1ccccc1)C(=O)OCC(=O)N1CCCCC1 (configuration not stated)
AC50 (A-375 [14]): > 35 µM (active)
AC50 (A-375 [13]): > 35 µM (active)

COc1ccccc1NC(=O)c1cnc(Nc2ccccc2OC)c2ccccc12
IC50 [7]: > 80 µM (inactive)

C=C(C)Cn1c(SCC(=O)N/N=C/c2c(O)ccc3ccccc23)nc2ccccc2c1=O
IC50 (Phospholipase A2): 7.98 µM (active)
AC50 [16]: 3.05 µM (active)
IC50 (Cysteine protease ATG4B): 13.3 µM (active)
EC50 [17]: 16.6 µM (active)
EC50 [18]: 19.5 µM (active)

O=C1C=C(c2cccc(Cl)c2O)C[C@@H](c2ccc(Cl)cc2)C1
IC50 [19]: 1.15 µM (active)
IC50 [20]: 2.66 µM (active)

Clc1ccccc1CN1CCN(c2ccccc2Cl)CC1
IC50 (Phospholipase A2): 6.52 µM (active)
IC50 (Cysteine protease ATG4B): 11.5 µM (active)

c1cc(Nc2cccc3nccnc23)c2nccnc2c1
EC50 [21]: > 99 µM (inactive)
IC50 [19]: 24.5 µM (inactive)
CC50 [22]: 31.7 µM (active)
EC50 [23]: > 99 µM (inactive)
IC50 [20]: 25.6 µM (inactive)

Reference: ChEMBL document CHEMBL1201862, “PubChem BioAssay data set” (2004)
